From patent US6737383B1, “Herbicidal oxadiazolidines” (priority 1999, dated 2004)

Legend:
blackgrass = experiment: Test B pre/postemergence blackgrass; type: in vivo, Alopecurus myosuroides
Outline: (§1)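 Herbicidal effect was estimated by eye on a ten-point control scale after plants spent twelve to sixteen days in a greenhouse following soil or foliar treatment. Foliar sprays targeted plants at one to four leaves; all doses were formulated in a non-phytotoxic solvent with surfactant.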

surinam grass = experiment: Test B pre/postemergence surinam grass; type: in vivo, Brachiaria decumbens
Outline: as §1

sugar beet = experiment: Test B pre/postemergence sugar beet; type: in vivo, Beta vulgaris
Outline: as §1

bamyardgrass = experiment: Test B flood test barnyardgrass; type: in vivo, Echinochloa crus-galli; conditions: for Plant response rating, Barnyardgrass (0 to 10 scale, 0 is no effect, 10 is complete control) / Barnyardgrass plant response rating (0 to 10 scale, 0 is no effect, 10 is complete control): visual evaluation after twelve to sixteen days; for Barnyardgrass plant response rating (0 to 10 scale, 0 is no effect, 10 is complete control): under heading Pre-emergence
Outline: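 Flood test on plants grown to the 2-leaf stage; treated plants kept in greenhouse twelve to sixteen days, then visually rated against controls on a 0 (no effect) to 10 (complete control) scale.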

[1] = Postemergence, Rate 125 g/ha, scale 0 to 10, 0 is no effect, 10 is complete control
[2] = Postemergence, Rate 250 g/ha, scale 0 to 10, 0 is no effect, 10 is complete control
[3] = Postemergence, Rate 500 g/ha, scale of 0 to 10 where 0 is no effect and 10 is complete control
[4] = Preemergence, Rate 62 g/ha, scale 0 to 10 (0 no effect, 10 complete control)
[5] = Preemergence, Rate 125 g/ha, scale of 0 to 10 where 0 is no effect and 10 is complete control
[6] = Preemergence, Rate 250 g/ha, scale of 0 to 10 where 0 is no effect and 10 is complete control
[7] = Preemergence, Rate 500 g/ha, scale 0 to 10, 0 is no effect, 10 is complete control
[8] = Rate 62 g/ha, Postemergence, scale of 0 to 10 where 0 is no effect and 10 is complete control
[9] = Preemergence, Rate 250 g/ha, scale 0 to 10, 0 is no effect, 10 is complete control
[10] = Postemergence section (flood test species), Rate 500 g/ha, scale of 0 to 10 where 0 is no effect and 10 is complete control
[11] = Postemergence, Rate 250 g/ha, scale 0 to 10
[12] = Rate 62 g/ha, Postemergence, scale 0 to 10 (0 no effect, 10 complete control)
[13] = Rate 125 g/ha, Postemergence, scale 0 to 10, 0 is no effect, 10 is complete control
[14] = Postemergence, Rate 250 g/ha, scale 0 to 10, 0 no effect, 10 complete control
[15] = Preemergence, Rate 62 g/ha, scale of 0 to 10 where 0 is no effect and 10 is complete control
[16] = Rate 62 g/ha, flood test species, Pre-emergence
[17] = Rate 125 g/ha, flood test species
[18] = Rate 250 g/ha, Pre-emergence (flood test species), scale 0 to 10, 0 is no effect, 10 is complete control
[19] = Rate 500 g/ha, Pre-emergence, flood test species, scale 0 to 10 (0 no effect, 10 complete control)
[20] = Postemergence, Rate 1000 g/ha, scale 0 to 10 (0 no effect, 10 complete control)
[21] = Rate 1000 g/ha, Preemergence, scale 0 to 10 (0 no effect, 10 complete control)

SMILES | Blackgrass plant response rating (blackgrass; [3]) | Plant response rating, Blackgrass (blackgrass; [5]) | Blackgrass plant response rating (blackgrass; [7]) | B. signalgrass plant response rating (surinam grass; [3]) | Plant response rating, B. signalgrass (surinam grass; [5]) | Sugarbeets plant response rating (sugar beet; [3]) | Plant response rating, Sugarbeets (sugar beet; [5]) | Sugarbeets plant response rating (sugar beet; [9]) | Sugarbeets plant response rating (sugar beet; [7]) | Blackgrass plant response rating (blackgrass; [11]) | Blackgrass plant response rating (blackgrass; [9]) | Blackgrass plant response rating (blackgrass; [12]) | Blackgrass plant response rating (blackgrass; [13]) | B. signalgrass plant response rating (surinam grass; [14]) | B. signalgrass plant response rating (surinam grass; [9]) | B. signalgrass plant response rating (surinam grass; [7]) | B. signalgrass plant response rating (surinam grass; [12]) | B. signalgrass plant response rating (surinam grass; [13]) | Sugarbeets plant response rating (sugar beet; [11]) | Sugarbeets plant response rating (sugar beet; [13]) | also measured
CC(C)N(C(=O)n1oc(=O)n(CC2(C)COC2)c1=O)c1ccccc1 [Compound 420] | 6 | 8 | 10 | 7 | 2 | 0 | 0 | 2 | 3 |  |  |  |  |  |  |  |  |  |  |  | Plant response rating, Blackgrass (blackgrass; [1]): 2; Plant response rating, Blackgrass (blackgrass; [2]): 6; Plant response rating, Blackgrass (blackgrass; [4]): 4; Blackgrass plant response rating (blackgrass; [6]): 8; Blackgrass plant response rating (blackgrass; [8]): 0; Plant response rating, B. signalgrass (surinam grass; [1]): 2; Plant response rating, B. signalgrass (surinam grass; [2]): 5; Plant response rating, B. signalgrass (surinam grass; [4]): 2; B. signalgrass plant response rating (surinam grass; [6]): 6; B. signalgrass plant response rating (surinam grass; Preemergence, Rate 500 g/ha, scale of 0 to 10 where 0 is no effect and 10 is complete control): 8; B. signalgrass plant response rating (surinam grass; [8]): 0; Plant response rating, Sugarbeets (sugar beet; [2]): 0; Plant response rating, Sugarbeets (sugar beet; [4]): 0; Plant response rating, Barnyardgrass (bamyardgrass; Postemergence (flood test), Rate 125 g/ha, scale 0 to 10, 0 is no effect, 10 is complete control): 0; Barnyardgrass plant response rating (bamyardgrass; [10]): 0; Barnyardgrass plant response rating (bamyardgrass; Rate 62 g/ha, Postemergence (flood test species), scale of 0 to 10 where 0 is no effect and 10 is complete control): 0; Plant response rating, Barnyardgrass (bamyardgrass; flood test species, listed under Postemergence, Rate 250 g/ha, scale 0 to 10, 0 is no effect, 10 is complete control): 0
CC(C)N(C(=O)n1oc(=O)n(C(C)C#N)c1=O)c1ccccc1 (centres unmarked) [Compound 435] | 8 | 0 | 2 | 3 | 0 | 0 | 0 | 0 | 1 | 6 | 0 | 0 | 0 | 1 | 0 | 1 | 0 | 0 | 0 | 0 | Plant response rating, Blackgrass (blackgrass; [4]): 0; Plant response rating, B. signalgrass (surinam grass; [4]): 0; Plant response rating, Sugarbeets (sugar beet; [4]): 0; Sugarbeets plant response rating (sugar beet; [12]): 0; Barnyardgrass plant response rating (bamyardgrass; Postemergence block (flood test species), Rate 250 g/ha, scale 0 to 10): 0; Barnyardgrass plant response rating (bamyardgrass; [10]): 0; Barnyardgrass plant response rating (bamyardgrass; Rate 62 g/ha, Postemergence (flood test), scale 0 to 10, 0 no effect, 10 complete control): 0; Barnyardgrass plant response rating (bamyardgrass; Rate 125 g/ha, Postemergence section (flood test species), scale 0 to 10, 0 is no effect, 10 is complete control): 0
CC(C)N(C(=O)n1oc(=O)n(CCC#N)c1=O)c1ccc(Cl)cc1 [Compound 444] | 7 | 0 | 8 | 4 | 0 | 3 | 0 | 0 | 0 | 5 | 8 | 0 | 2 | 4 | 1 | 8 | 0 | 0 | 0 | 0 | Plant response rating, Blackgrass (blackgrass; [15]): 0; Plant response rating, B. signalgrass (surinam grass; [15]): 0; Plant response rating, Sugarbeets (sugar beet; [15]): 0; Sugarbeets plant response rating (sugar beet; [12]): 0; Plant response rating, Barnyardgrass (0 to 10 scale, 0 is no effect, 10 is complete control) (bamyardgrass; [16]): 0; Barnyardgrass plant response rating (0 to 10 scale, 0 is no effect, 10 is complete control) (bamyardgrass; [17]): 0; Barnyardgrass plant response rating (bamyardgrass; [18]): 0; Barnyardgrass plant response rating (bamyardgrass; [19]): 0
CCOP(=O)(Cn1c(=O)on(C(=O)N(c2ccccc2)C(C)C)c1=O)OCC [Compound 447] | 2 | 0 | 0 | 0 | 0 | 0 | 0 | 0 | 0 | 0 | 0 |  | 0 | 0 | 0 | 0 |  | 0 | 0 | 0 | Blackgrass plant response rating (blackgrass; [20]): 7; Plant response rating, Blackgrass (blackgrass; [21]): 3; B. signalgrass plant response rating (surinam grass; [20]): 2; Plant response rating, B. signalgrass (surinam grass; [21]): 6; Sugarbeets plant response rating (sugar beet; [20]): 0; Plant response rating, Sugarbeets (sugar beet; [21]): 0; Barnyardgrass plant response rating (bamyardgrass; Pre-emergence, Rate 1000 g/ha, scale 0 to 10 (0 no effect, 10 complete control)): 0; Barnyardgrass plant response rating (0 to 10 scale, 0 is no effect, 10 is complete control) (bamyardgrass; [17]): 0; Barnyardgrass plant response rating (bamyardgrass; [18]): 0; Barnyardgrass plant response rating (bamyardgrass; [19]): 0
CCc1nc(C)c(C(C)n2c(=O)on(C(=O)N(c3ccc(F)cc3)C(C)C)c2=O)s1 (centres unmarked) [Compound 449] |  | 0 | 3 | 4 | 0 | 3 | 0 | 0 | 0 | 0 | 0 | 0 | 0 | 0 | 0 | 0 | 0 | 0 | 0 | 0 | Plant response rating, Blackgrass (blackgrass; [15]): 0; Plant response rating, B. signalgrass (surinam grass; [15]): 0; Plant response rating, Sugarbeets (sugar beet; [15]): 0; Sugarbeets plant response rating (sugar beet; [12]): 0; Plant response rating, Barnyardgrass (0 to 10 scale, 0 is no effect, 10 is complete control) (bamyardgrass; [16]): 0; Barnyardgrass plant response rating (0 to 10 scale, 0 is no effect, 10 is complete control) (bamyardgrass; [17]): 0; Barnyardgrass plant response rating (bamyardgrass; [18]): 0; Barnyardgrass plant response rating (bamyardgrass; [19]): 0
